# Where a name gives a salt, the structure may show the parent alone. Read-outs that look alike come from different tables or passages of the source.
# Legend:
# Cryptosporidium parvum = test: qRT-PCR assay of the growth of C. parvum in vitro in HCT-8 host cells (primary and secondary screening, EC50); assay type: cell-based; conditions: Cryptosporidium parvum, HCT-8; for inhibition at 3.3 µM: secondary screening at 3.3 uM, read-out: % Inhibition (3.3 uM)
# [1] = primary screening at 10 uM, read-out: Inhibition (%)
# [2] = primary screening at 10 uM, treated vs control
Structure (SMILES),inhibition at 10 µM (Cryptosporidium parvum; [1]),"Hs18S ΔCT (HCT-8 host cells (Hs18S); human, 41 h, 10 μM)","cytotoxicity at 41 h, 10 µM (in vitro; human)",other results
C/C=C(\C)C(=O)O[C@H]1C[C@@H](OC(C)=O)[C@@]2(C(=O)OC)CO[C@H]3[C@@H](O)[C@@](C)([C@]45O[C@@]4(C)[C@H]4C[C@@H]5O[C@@H]5OC=C[C@@]54O)[C@H]4[C@]1(CO[C@]4(O)C(=O)OC)[C@@H]32 [AZADIRACHTIN],23.7%,0.00,-0.1%,
COc1cc(O)c2c(=O)c(OC)c(-c3ccc(OC)c(OC)c3)oc2c1 [RETUSIN],33.2%,,,Hs18S ΔCT (HCT-8 host cells (Hs18S); [2]): 0.27; cytotoxicity at 10 µM (in vitro): 17%
O=c1c(-c2ccc(O)cc2)coc2c([C@@H]3O[C@H](CO)[C@@H](O)[C@H](O)[C@H]3O)c(O)ccc12 [PUERARIN],-23%,,-37.4%,Hs18S ΔCT (HCT-8 host cells (Hs18S); [2]): -0.46
COc1ccc(-c2coc3cc(O)ccc3c2=O)c(O)c1O [KOPARIN],6.05%,-0.02,-1.6%,
COc1c(C)c2c(c(O)c1C/C=C(\C)CCC(=O)O)C(=O)OC2 [MYCOPHENOLIC ACID],44.4%,1.03,51.1%,
C=CC(C)(O)CCC=C(C)CCC=C(C)C (mixture of isomers) [NEROLIDOL],-35.5%,-0.17,-12.9%,
COc1ccc2c(c1)OCC(Cc1ccc(OC)c(OC)c1)C2=O (centres unmarked),20.2%,,,Hs18S ΔCT (HCT-8 host cells (Hs18S); [2]): 0.04; cytotoxicity at 10 µM (in vitro): 2.4%
Oc1cc(O)c2c(c1)O[C@H](c1cc(O)c(O)c(O)c1)[C@H](O)C2 [EPIGALLOCATECHIN],7.01%,0.15,9.9%,
OCc1c[nH]c2ccccc12 [INDOLE-3-CARBINOL],0.77%,,-31.7%,Hs18S ΔCT (HCT-8 host cells (Hs18S); [2]): -0.40
COC(=O)C[C@H]1C(C)(C)C(=O)[C@@H]2CC3C4=CC(=O)O[C@@H](c5ccoc5)[C@]4(C)CC[C@@H]3[C@@]1(C)C2=O (some centres unmarked) [CARAPIN],30.7%,-0.07,-5.2%,
CC(C)=CCCC1(C)C=Cc2c(O)c3c(c(CC=C(C)C)c2O1)OC12C(=CCCC1C(C)(C)O[C@@]2(C/C=C(\C)C(=O)O)C(=O)O)C3=O (some centres unmarked) [GARCINOLIC ACID],-51.3%,0.36,22%,
COC(=O)[C@H]1[C@H]2C[C@H]3c4[nH]c5ccccc5c4CCN3C[C@H]2CC[C@@H]1O [RAUWOLSCINE HYDROCHLORIDE],22.9%,-0.17,-12.6%,
O=C1C[C@@H]2OCC=C3CN4CC[C@]56c7ccccc7N1[C@H]5[C@H]2[C@H]3C[C@H]46 [STRYCHNINE],,,,inhibition at 10 µM (Cryptosporidium parvum): 29%; Hs18S ΔCT (HCT-8 host cells (Hs18S)): -0.30; cytotoxicity at 10 µM (in vitro): -23.5%
COc1cc2c(cc1OC)[C@H](C)NCC2 [SALSOLIDINE],47.1%,,,"Hs18S ΔCT (HCT-8 host cells (Hs18S); [2]): 0.32; cytotoxicity at 41 h, 10 µM (in vitro): 20%"
C[C@H]1[C@H]2CC[C@H]3[C@@H]4CC=C5C[C@@H](N(C)C)CC[C@]5(C)[C@H]4CC[C@]23CN1C [CONESSINE],-2.33%,-0.14,-10.4%,
COc1ccc2c(c1)O[C@H]1c3ccc(OC)cc3OC[C@@H]21 [HOMOPTEROCARPIN],5.57%,,,Hs18S ΔCT (HCT-8 host cells (Hs18S); [2]): -0.01; cytotoxicity at 10 µM (in vitro): -0.7%
Cn1c(=O)c2c(ncn2C)n(C)c1=O [CAFFEINE],3.94%,,,Hs18S ΔCT (HCT-8 host cells (Hs18S)): 0.27; cytotoxicity at 10 µM (in vitro): 16.9%
Cn1cnc2c1c(=O)[nH]c(=O)n2C [THEOBROMINE],-18.1%,0.03,2.2%,
COC1=C[C@@H](C)[C@@H]2C[C@H]3OC(=O)C[C@H]4C(C)=C(OC)C(=O)[C@H]([C@@]2(C)C1=O)[C@@]34C [QUASSIN],29.4%,0.08,5.1%,
Cc1c(O)c(O)cc2c1CC=C1[C@@]2(C)CC[C@@]2(C)[C@@H]3C[C@](C)(C(=O)O)CC[C@]3(C)CC[C@]12C [DIHYDROCELASTROL],92.5%,,,inhibition at 3.3 µM (Cryptosporidium parvum): -66%; Hs18S ΔCT (HCT-8 host cells (Hs18S); [2]): 1.27; cytotoxicity at 10 µM (in vitro): 58.7%

Structure (SMILES),inhibition at 10 µM (Cryptosporidium parvum; [1]),"Hs18S ΔCT (HCT-8 host cells (Hs18S); human, 41 h, 10 μM)","cytotoxicity at 41 h, 10 µM (in vitro; human)",other results
NCCSSCCN [CYSTAMINE DIHYDROCHLORIDE],5.08%,-0.15,-11.2%,
OC[C@@H](O)[C@@H](O[C@@H]1O[C@H](CO)[C@@H](O)[C@H](O)[C@H]1O)[C@H](O)[C@@H](O)CO [GLUCITOL-4-GUCOPYANOSIDE],4.89%,-0.19,-14.4%,
N[C@@H](C(=O)O)[C@@H](O)[C@H](O)[C@H](O)CO [GLUCOSAMINIC ACID],-5.48%,0.22,13.9%,
Cc1cc(=O)oc2c(O)c(O)ccc12 [4-METHYLDAPHNETIN],-23.7%,-0.22,-16.6%,
Cc1[nH]c2ccccc2c1CN(C)C [2-METHYL GRAMINE],0.92%,-0.11,-7.5%,
Cc1ccc(C(C)C)cc2c(C)ccc1-2 [GUAIAZULENE],-38.2%,-0.34,-27%,
COC(=O)[C@@H]1C[C@H](OC(C)=O)C(=O)[C@H]2[C@@]1(C)CC[C@H]1C(=O)O[C@H](c3ccoc3)C[C@]21C [[…]],16.7%,,,Hs18S ΔCT (HCT-8 host cells (Hs18S); [2]): 0.53; cytotoxicity at 10 µM (in vitro): 30.5%
Cc1cc(O)c2c(c1)C(=O)c1cccc(O)c1C2=O [CHRYSOPHANOL],-71.6%,0.17,11.4%,
COc1cc([C@@H]2c3cc4c(cc3[C@@H](O[C@@H]3O[C@@H]5CO[C@@H](C)O[C@H]5[C@H](O)[C@H]3O)[C@H]3COC(=O)[C@H]23)OCO4)cc(OC)c1O [ETOPOSIDE],48.5%,0.40,24.1%,
CCCCCCCCCCCC1=C(O)C(=O)C=C(O)C1=O [EMBELIN],-5.38%,,,Hs18S ΔCT (HCT-8 host cells (Hs18S); [2]): 0.13; cytotoxicity at 10 µM (in vitro): 8.8%
CC1=C(/C=C/C(C)=C/C=C/C(C)=C/CO)C(C)(C)CCC1 [RETINOL],6.73%,0.09,6.3%,
COc1ccc2c(c1)OC[C@@H](Cc1ccc(OC)c(OC)c1)[C@H]2O,9.9%,,,Hs18S ΔCT (HCT-8 host cells (Hs18S); [2]): -0.10; cytotoxicity at 10 µM (in vitro): -6.9%
C=C1CC[C@@H]2[C@](C)(CO)[C@H](O)CC[C@@]2(C)[C@@H]1C/C=C1/C(=O)OC[C@H]1O [ANDROGRAPHOLIDE],38.8%,0.08,5.3%,
NC[C@@H]1O[C@H](O[C@H]2[C@@H](O)[C@H](O[C@@H]3[C@@H](O)[C@H](N)C[C@H](N)[C@H]3O[C@H]3O[C@H](CO)[C@@H](O)[C@H](O)[C@H]3N)O[C@@H]2CO)[C@H](N)[C@@H](O)[C@@H]1O [PAROMOMYCIN SULFATE],19.7%,0.08,5.5%,
CC(C)CCC[C@@H](C)[C@H]1CC[C@H]2[C@@H]3CC=C4CC(=O)CC[C@]4(C)[C@H]3CC[C@]12C [CHOLEST-5-EN-3-ONE],-37.5%,0.04,2.7%,
CC[C@]12CCCN3CCc4c(n(c5ccccc45)[C@@](O)(C(=O)OC)C1)[C@@H]32 [VINCAMINE],-20.8%,0.12,8.2%,
CC(C)=CC1C(CO)C1(C)C (centres unmarked) [CHRYSANTHEMYL ALCOHOL],-16.9%,-0.13,-9.5%,
COc1c(-c2coc3cc4c(cc3c2=O)CC(O)C(C)(C)O4)ccc2c1C=CC(C)(C)O2 (centres unmarked) [MUNDULONE],61.8%,0.22,14.4%,inhibition at 3.3 µM (Cryptosporidium parvum): -43%
Cc1cc(O)c2c(c1)C(=O)c1cc(O)cc(O)c1C2=O [EMODIN],-18%,-0.04,-3%,
O=c1cc(-c2ccccc2)oc2cc(O)cc(O)c12 [CHRYSIN],20.3%,0.14,9.3%,

# — PMC6736568, “Discovery of Novel Anti-cryptosporidial Activities From Natural Products by in vitro High-Throughput Phenotypic Screening” (Frontiers in Microbiology, 2019)
